# Experimental data as given in patent US10696707B2, “Polyene macrolide derivative” (Shionogi & Co., Ltd., priority 2014, dated 2020).
# System: red blood cells (5% RBC suspension)
# Assay: Test Example 2-1: in vitro hemolytic activity test (upper limit 50, 80, 100 or 200 μmol/L)
# Type: cell-based
# Details: Erythrocyte, 1 h, read-out: hemolysis IC50
# Protocol: Nephrotoxic potentials of the compounds of the present invention except the compounds whose X is —N(R^F)—CO—X^1 and X^1 is the group represented by formula (III) and T is —N(R^a5)— were investigated by in vitro hemolytic activity test under the condition, in that, the upper limit was 50 μmol/L, 80 μmol/L, 100 μmol/L, or 200 μmol/L as the required concentration to 50% of hemolysis (IC50).
# Defibrinated sterile blood was centrifuged at 700×g for 3 minutes and, and the supernatant was removed for 100% of red blood cells. After the cleaning with physiological saline, the washed blood cells was suspended in the medium (Earle's balanced salt sodium, bicarbonate, 0.1 g/L L-glutamine without phenol red), and was diluted by 5% (5% RBC suspension).
# The washed blood was diluted by 5% in water for injection (solution of complete hemolysis), and was used as the indication of optical density for complete hemolysis.
# The compounds of the present invention solution in DMSO (several and doubling dilutions starting from 2.5 mmol/L, 4 mmol/L, 5 mmol/L, or 10 mmol/L), DMSO as the negative control, and Amphotericin B as the positive control were used, and each 5 μL of these was added in to a well of V-form 96 well type microplate.
# Finally, the maximum concentration of the compounds of the present invention solution in DMSO was 50 μmol/L, 80 μmol/L, 100 μmol/L, or 200 μmol/L by adding 245 μL of the medium or 5% RBC suspension into the well.
# Two hundred fifty μL of the solution of complete hemolysis was added into another well and the microplate was incubated at 37° C. in 5% of CO2 concentration for an hour.
# After the incubation, each 100 μL of supernatants in wells was collected by centrifugation of the microplate at 300×g for 5 minutes and was located on a well of flat-form 96 well type microplate. An absorbance of each supernatant was measured at wavelength of 540 nm.
# Percent hemolysis was calculated by using the followed equation. The required concentration to 50% of hemolysis (IC50) was calculated based on the percent hemolysis. […] Hemolysis (%)=(CR−VM)×100÷(VL−VR) Where:
# CR: Absorbance of 5% RBC suspension incubated with the compounds of the present invention solution in DMSO
# VM: Absorbance of medium incubated with the compounds of the present invention solution in DMSO
# VL: Absorbance of solution of complete hemolysis
# VR: Absorbance of 5% RBC suspension incubated with DMSO
# The “hemolysis method” in the table means any tests the upper concentration of above IC50 are 50 μmol/L, 80 μmol/L, 100 μmol/L or 200 μmol/L. The “>50”, “>80”, “>100” or “>200” in the table means above IC50 value exceeded the each upper concentration.
row,Structure (SMILES),IC50 [µM]
1,C[C@@H]1[C@H](O)[C@@H](C)/C=C/C=C/C=C/C=C/C=C/C=C/C=C/[C@H](O[C@@H]2O[C@H](C)[C@@H](O)[C@H](N)[C@@H]2O)C[C@@H]2O[C@](O)(C[C@@H](O)C[C@@H](O)[C@H](O)CC[C@@H](O)C[C@@H](O)CC(=O)O[C@H]1C)C[C@H](O)[C@H]2c1nc(-c2ccc(N(C)C)cc2)no1 [I-390],> 50

# Same assay, conditions: Erythrocyte, 1 h; hemolysis method 50 (upper concentration 50 μmol/L); 5% RBC suspension, 37° C., one hour; read-out: hemolysis IC50
row,Structure (SMILES),IC50 [µM]
1,C[C@@H]1[C@H](O)[C@@H](C)/C=C/C=C/C=C/C=C/C=C/C=C/C=C/[C@H](O[C@@H]2O[C@H](C)[C@@H](O)[C@H](N)[C@@H]2O)C[C@@H]2O[C@](O)(C[C@@H](O)C[C@@H](O)[C@H](O)CC[C@@H](O)C[C@@H](O)CC(=O)O[C@H]1C)C[C@H](O)[C@H]2NC(=O)NC1(C(=O)O)COC1 [I-252],> 50
2,C[C@@H]1[C@H](O)[C@@H](C)/C=C/C=C/C=C/C=C/C=C/C=C/C=C/[C@H](O[C@@H]2O[C@H](C)[C@@H](O)[C@H](NC[C@@]3(O)OC[C@@H](O)[C@H](O)[C@@H]3O)[C@@H]2O)C[C@@H]2O[C@](O)(C[C@@H](O)C[C@@H](O)[C@H](O)CC[C@@H](O)C[C@@H](O)CC(=O)O[C@H]1C)C[C@H](O)[C@H]2NC(=O)NC[C@H](O)CO [I-368],> 50

# Same assay, conditions: Erythrocyte, 1 h; hemolysis method 100 (upper concentration 100 μmol/L); 5% RBC suspension, 37° C., one hour; read-out: hemolysis IC50
row,Structure (SMILES),IC50 [µM]
1,C[C@@H]1[C@H](O)[C@@H](C)/C=C/C=C/C=C/C=C/C=C/C=C/C=C/[C@H](O[C@@H]2O[C@H](C)[C@@H](O)[C@H](N)[C@@H]2O)C[C@@H]2O[C@](O)(C[C@@H](O)C[C@@H](O)[C@H](O)CC[C@@H](O)C[C@@H](O)CC(=O)O[C@H]1C)C[C@H](O)[C@H]2NC(=O)NCCc1c[nH]cn1 [I-5],94

# Same assay, conditions: hemolysis method 50 (upper concentration 50 μmol/L); 5% RBC suspension, 37° C., one hour; read-out: hemolysis IC50
row,Structure (SMILES),IC50 [µM]
1,C[C@@H]1[C@H](O)[C@@H](C)/C=C/C=C/C=C/C=C/C=C/C=C/C=C/[C@H](O[C@@H]2O[C@H](C)[C@@H](O)[C@H](N)[C@@H]2O)C[C@@H]2O[C@](O)(C[C@@H](O)C[C@@H](O)[C@H](O)CC[C@@H](O)C[C@@H](O)CC(=O)O[C@H]1C)C[C@H](O)[C@H]2NC(=O)NC(C(=O)O)[C@H](C)O (some centres unmarked) [I-291],> 50
2,C[C@@H]1[C@H](O)[C@@H](C)/C=C/C=C/C=C/C=C/C=C/C=C/C=C/[C@H](O[C@@H]2O[C@H](C)[C@@H](O)[C@H](N)[C@@H]2O)C[C@@H]2O[C@](O)(C[C@@H](O)C[C@@H](O)[C@H](O)CC[C@@H](O)C[C@@H](O)CC(=O)O[C@H]1C)C[C@H](O)[C@H]2NC(=O)NCCOCCS(C)(=O)=O [I-241],> 50
3,C[C@@H]1[C@H](O)[C@@H](C)/C=C/C=C/C=C/C=C/C=C/C=C/C=C/[C@H](O[C@@H]2O[C@H](C)[C@@H](O)[C@H](N)[C@@H]2O)C[C@@H]2O[C@](O)(C[C@@H](O)C[C@@H](O)[C@H](O)CC[C@@H](O)C[C@@H](O)CC(=O)O[C@H]1C)C[C@H](O)[C@H]2NC(=O)N1CC(NC[C@H](O)CO)C1 [I-226],> 50
4,CCCN(O)C(=O)N[C@H]1[C@@H]2C[C@@H](O[C@@H]3O[C@H](C)[C@@H](O)[C@H](N)[C@@H]3O)/C=C/C=C/C=C/C=C/C=C/C=C/C=C/[C@H](C)[C@@H](O)[C@@H](C)[C@H](C)OC(=O)C[C@H](O)C[C@H](O)CC[C@@H](O)[C@H](O)C[C@H](O)C[C@](O)(C[C@@H]1O)O2 [I-280],> 50
5,C[C@@H]1[C@H](O)[C@@H](C)/C=C/C=C/C=C/C=C/C=C/C=C/C=C/[C@H](O[C@@H]2O[C@H](C)[C@@H](O)[C@H](N)[C@@H]2O)C[C@@H]2O[C@](O)(C[C@@H](O)C[C@@H](O)[C@H](O)CC[C@@H](O)C[C@@H](O)CC(=O)O[C@H]1C)C[C@H](O)[C@H]2NC(=O)NC(CNS(N)(=O)=O)CN(C)C (some centres unmarked) [I-234],> 50
6,C[C@@H]1[C@H](O)[C@@H](C)/C=C/C=C/C=C/C=C/C=C/C=C/C=C/[C@H](O[C@@H]2O[C@H](C)[C@@H](O)[C@H](N)[C@@H]2O)C[C@@H]2O[C@](O)(C[C@@H](O)C[C@@H](O)[C@H](O)CC[C@@H](O)C[C@@H](O)CC(=O)O[C@H]1C)C[C@H](O)[C@H]2NC(=O)NC1(C#N)COC1 [I-258],> 50
7,C[C@@H]1[C@H](O)[C@@H](C)/C=C/C=C/C=C/C=C/C=C/C=C/C=C/[C@H](O[C@@H]2O[C@H](C)[C@@H](O)[C@H](N)[C@@H]2O)C[C@@H]2O[C@](O)(C[C@@H](O)C[C@@H](O)[C@H](O)CC[C@@H](O)C[C@@H](O)CC(=O)O[C@H]1C)C[C@H](O)[C@H]2NC(=O)NC1CCS(=O)(=O)C1 (some centres unmarked) [I-231],> 50

# Same assay, conditions: hemolysis method 80 (upper concentration 80 μmol/L); 5% RBC suspension, 37° C., one hour; read-out: hemolysis IC50
row,Structure (SMILES),IC50 [µM]
1,C[C@@H]1[C@H](O)[C@@H](C)/C=C/C=C/C=C/C=C/C=C/C=C/C=C/[C@H](O[C@@H]2O[C@H](C)[C@@H](O)[C@H](N)[C@@H]2O)C[C@@H]2O[C@](O)(C[C@@H](O)C[C@@H](O)[C@H](O)CC[C@@H](O)C[C@@H](O)CC(=O)O[C@H]1C)C[C@H](O)[C@H]2NC(=O)NCCc1ccccn1 [I-15],> 80
2,C[C@@H]1[C@H](O)[C@@H](C)/C=C/C=C/C=C/C=C/C=C/C=C/C=C/[C@H](O[C@@H]2O[C@H](C)[C@@H](O)[C@H](N)[C@@H]2O)C[C@@H]2O[C@](O)(C[C@@H](O)C[C@@H](O)[C@H](O)CC[C@@H](O)C[C@@H](O)CC(=O)O[C@H]1C)C[C@H](O)[C@H]2NC(=O)NCC(F)(F)F [I-21],> 80
3,C[C@@H]1[C@H](O)[C@@H](C)/C=C/C=C/C=C/C=C/C=C/C=C/C=C/[C@H](O[C@@H]2O[C@H](C)[C@@H](O)[C@H](N)[C@@H]2O)C[C@@H]2O[C@](O)(C[C@@H](O)C[C@@H](O)[C@H](O)CC[C@@H](O)C[C@@H](O)CC(=O)O[C@H]1C)C[C@H](O)[C@H]2NC(=O)NCC[N+](C)(C)C [I-53],> 80

# Same assay, conditions: hemolysis method 100 (upper concentration 100 μmol/L); 5% RBC suspension, 37° C., one hour; read-out: hemolysis IC50
row,Structure (SMILES),IC50 [µM]
1,C[C@@H]1[C@H](O)[C@@H](C)/C=C/C=C/C=C/C=C/C=C/C=C/C=C/[C@H](O[C@@H]2O[C@H](C)[C@@H](O)[C@H](N)[C@@H]2O)C[C@@H]2O[C@](O)(C[C@@H](O)C[C@@H](O)[C@H](O)CC[C@@H](O)C[C@@H](O)CC(=O)O[C@H]1C)C[C@H](O)[C@H]2NC(=O)N(C)C [I-10],> 100
2,C[C@@H]1[C@H](O)[C@@H](C)/C=C/C=C/C=C/C=C/C=C/C=C/C=C/[C@H](O[C@@H]2O[C@H](C)[C@@H](O)[C@H](NC(=O)CN(C)C)[C@@H]2O)C[C@@H]2O[C@](O)(C[C@@H](O)C[C@@H](O)[C@H](O)CC[C@@H](O)C[C@@H](O)CC(=O)O[C@H]1C)C[C@H](O)[C@H]2NC(=O)NCCN(C)C [I-327],> 50
3,CNC(=O)N[C@H]1[C@@H]2C[C@@H](O[C@@H]3O[C@H](C)[C@@H](O)[C@H](NCc4ccc(N(C)C)cc4)[C@@H]3O)/C=C/C=C/C=C/C=C/C=C/C=C/C=C/[C@H](C)[C@@H](O)[C@@H](C)[C@H](C)OC(=O)C[C@H](O)C[C@H](O)CC[C@@H](O)[C@H](O)C[C@H](O)C[C@](O)(C[C@@H]1O)O2 [I-314],> 80
4,C[C@@H]1[C@H](O)[C@@H](C)/C=C/C=C/C=C/C=C/C=C/C=C/C=C/[C@H](O[C@@H]2O[C@H](C)[C@@H](O)[C@H](NCc3cccnc3N)[C@@H]2O)C[C@@H]2O[C@](O)(C[C@@H](O)C[C@@H](O)[C@H](O)CC[C@@H](O)C[C@@H](O)CC(=O)O[C@H]1C)C[C@H](O)[C@H]2NC(=O)NCCN(C)C [I-328],> 50
5,C[C@@H]1[C@H](O)[C@@H](C)/C=C/C=C/C=C/C=C/C=C/C=C/C=C/[C@H](O[C@@H]2O[C@H](C)[C@@H](O)[C@H](N)[C@@H]2O)C[C@@H]2O[C@](O)(C[C@@H](O)C[C@@H](O)[C@H](O)CC[C@@H](O)C[C@@H](O)CC(=O)O[C@H]1C)C[C@H](O)[C@H]2NC(=O)NCCCN1CCOCC1 [I-8],96
6,C[C@@H]1[C@H](O)[C@@H](C)/C=C/C=C/C=C/C=C/C=C/C=C/C=C/[C@H](O[C@@H]2O[C@H](C)[C@@H](O)[C@H](N)[C@@H]2O)C[C@@H]2O[C@](O)(C[C@@H](O)C[C@@H](O)[C@H](O)CC[C@@H](O)C[C@@H](O)CC(=O)O[C@H]1C)C[C@H](O)[C@H]2NC(=O)NC(C)(CO)CO [I-213],> 100
